Structures are written as SMILES.

Data set [1] deals with SHH-induced GLI activity (GLI-BS reporter) in NIH3T3. Nature of the data set: HH pathway reporter (GLI-BS reporter) assay, +Shh in NIH3T3. The conditions noted are these: Mus musculus; +Shh in NIH3T3, 48 hrs with compound. Type of data set: cell-based. The protocol:
(§1) The HH-responsive firefly luciferase reporter (GLI-BS) and a control Renilla luciferase reporter (SV40-RL) were transfected into indicated cell lines using Effectene (Qiagen) either alone or with indicated DNAs. 24 hrs after transfection, cells were switched to low serum media (3% calf serum), and grown for another 48 hrs. in 5% CO2 in the presence/absence of compounds. 3T3-ShhFL cell line that stably expressing SHH and the two reporters were cultured in a similar fashion. FL and RL activities in lysate generated using Passive Lysis Buffer (Promega) were then assessed using the Dual-Luciferase kit (Promega) and a 96-well plate reading luminometer (BMG). The ratio of FL/RL was calculated and the averaged ratios from three replicates were reported.

The test system of data set [2] is GLI1 binding to DNA in RMS13 cells. Nature of the data set: GLI DNA binding assay (biotinylated oligo pulldown). Type of data set: cell-based. The conditions noted are these: lysate of RMS13 cells treated 48 hrs. The protocol: A detailed protocol for DNA binding assay was previously described. Briefly, cells treated for 48 hrs with compounds were lysed in 1% NP40/phosphate buffered saline/protease inhibitors and cleared using a microcentrifuge. The lysate was then incubated with 0.5 µM of double-strand biotinylated oligonucleotides and 40 µl streptavidin-agarose bead suspension (Thermo Scientific, 20349) for 2 hrs. The streptavidin agarose beads are washed (3X) with 1% NP40/phosphate buffered saline/protease inhibitors and eluted with 2X Laemmli sample buffer. The supernatants are separated on SDS-PAGE and analyzed using western blotting. Antibodies were purchased from the following vendors: GLI1 (Cell Signaling Technology, #2534) and actin (SIGMA, #A5441).

For another data set, the system named is Caco-2 cells. Nature of the data set: Caco-2 transwell cell permeability assay read out with 3T3-ShhFL reporter cells. Format: in vitro ADME. The conditions noted are these: 10μM, 6hrs, "B" CM tested on 3T3-ShhFL cells. The protocol: Caco-2 cell permeability assay was previously described. Briefly, Caco-2 cells were grown to confluence in 12-well transwell plates. Culture medium was replaced with 10μM of compounds in DMEM/ 3% calf serum and incubated for 6hrs. Diluted media were added to confluent 3T3-ShhFL cells for 48hrs and measure the Hh pathway activity by reporter assay.
A general note: Caco-2 cells form a polarised layer with tight junctions and transporters.

The test system of data set [3] is SMO-M2 in NIH3T3 (GLI-BS reporter). Nature of the data set: GLI-BS reporter assay, NIH3T3 cells with SMO-M2 DNA. Type of data set: cell-based. The conditions noted are these: Mus musculus. The protocol: as §1
For orientation: Reporter assays use an easily measured gene product as a stand-in for the process of interest.

Data set [4] concerns nuclear HDAC activity (Ac-H3) in NIH-3T3 cells. Nature of the data set: Acetylation assay, Western blotting for acetylated histone 3 (Ac-H3). Format: cell-based. To be noted: 48hrs, Western blot. The procedure:
(§2) For analyzing acetylation status of histone 3 and tubulin, NIH3T3 cells were grown to confluence in 6-well plates. After 48hrs of treatment with indicated chemicals, cells were lysed in RIPA buffer or 1% NP40/phosphate buffered saline/protease inhibitors (SIGMA, #S8820), the lysate cleared using a microcentrifuge, then 6 × sample loading buffer (Bioland Scientific) added to the supernatant. Proteins were separated on SDS-PAGE (BioRad Criterion TGX Precast Gels). Antibodies used for analyzing the blots were: acetylated tubulin (SIGMA, #T6793), tubulin, acetyl-histone H3 (Lys23), and histone H3 (Cell Signaling Technology, #2125 S, #8848 and #9717, respectively). Chemiluminescence was detected using a Li-COR Odyssey Imaging System.
(Immunoblotting shows a protein as a band on a membrane.)

Data set [5] concerns HDAC activity (acetylated tubulin) in NIH-3T3 cells. Nature of the data set: Acetylation assay, Western blot of acetylated tubulin. The conditions noted are these: 48hrs. Type of data set: cell-based. The protocol: as §2
Data set [6] concerns SMO-L412F in NIH3T3 (GLI-BS reporter). As to the kind of experiment: GLI-BS reporter assay, NIH3T3 cells with SMO-L412F DNA. To be noted: Mus musculus. Format: cell-based. The protocol: as §1
Data set [7] relates to RMS13 cells (GLI1 amp), GLI-BS reporter. Nature of the data set: GLI-BS reporter assay in RMS13 cells (GLI1 amplification). Type of data set: cell-based. The procedure: as §1
Data set [8] deals with GLI-BS reporter in Ptch1-/- MEFs. Nature of the data set: GLI-BS reporter assay in Ptch1-/- MEFs. Format: cell-based. The protocol:
as §1

What is called IC50 is the concentration at which inhibition is half-maximal. `CC(C)(C)OC(=O)Nc1ccc(Cl)c(C(=O)Nc2ccc(NC(=O)c3cc(Cl)ccc3Cl)cc2)c1` [IHR-NBoc, tert-butyl (4-chloro-3-((4-(2,5-dichlorobenzamido)phenyl)carbamoyl)phenyl)carbamate]: the half-maximal inhibitory concentration (IC50) in data set [1] stood at 1.9 nM.

As to `O=C(CCCCCCC(=O)Nc1ccccc1)NO` [SAHA, suberanilohydroxamic acid], the “GLI1 binding to immobilized oligos with consensus GLI binding sequence” value in [2] is “loss of GLI1 binding”.

In the case of `CC(C)(C)OC(=O)NCCCCCCC(=O)Nc1ccc(Cl)c(C(=O)Nc2ccc(NC(=O)c3cc(Cl)ccc3Cl)cc2)c1` [IHR-C7], in the data set on Caco-2 cells, the “ability to transverse a cell monolayer (cell permeability)” value is “improved”. Also, the IC50 in [1] worked out at 4 nM.

With `O=C(CCCCCCC(=O)Nc1ccc(Cl)c(C(=O)Nc2cccc(NC(=O)c3cc(Cl)ccc3Cl)c2)c1)NO` [IHR (meta)-SAHA], the IC50 in data set [3] came to 850 nM; in data set [1] it was 2300 nM; in [6], 920 nM; in data set [7], 1200 nM; in data set [8], 2500 nM. For the same compound, in data set [4], the “HDAC inhibitory activity, accumulation of acetylated histone 3 (ratio Ac-H3 to total H3)” value is reported as “retain HDAC inhibitory activity”. The “HDAC inhibitory activity, acetylated tubulin accumulation (ratio to total tubulin), compared with SAHA” value in data set [5] is “increase in anti-HDAC activity”.

Turning to `O=C(Nc1ccc(NC(=O)c2cc(Cl)ccc2Cl)cc1)c1cc(Cl)ccc1Cl` [IHR-1, reference compound], the 50% inhibitory concentration (IC50) in data set [1] amounted to 7 nM; in data set [8], 25 nM.
